US20250003953A1, “Methods and Model Systems for Assessing Therapeutic Properties of Candidate Agents and Related Computer Readable Media and Systems” (The Regents of the University of California, priority 2021, published 2025)

System: lipid peroxidation
Assay: Lipid peroxidation live cell probe dose curve and survival kinetics
Format: cell-based
Source text: FIG. 7B plots gene expression of anti-ferroptotic genes for each cell line in response to increasing ARS1620 dosage. […] Lipid peroxidation and survival kinetics cross over around IC50 in all compounds indicating ARS1620 performs as a ferroptosis inducing agent.
Among this group of genes were FTH1 and FTL, the two components of the Ferritin Complex, which is responsible for sequestration of labile free iron. Using a lipid peroxidation live cell probe, lipid peroxidation—one of the hallmark phenotypes of ferroptosis—was measured in response to ARS-1620 treatment.

## C=CC(=O)N1CCN(c2ncnc3c(F)c(-c4c(O)cccc4F)c(Cl)cc23)CC1 [ARS1620]
48 h, fluorescent lipid peroxidation sensor
  lipid peroxidation dose response: induced lipid peroxidation in a dose dependent fashion
Dose curves
  cross-over of survival and normalized lipid peroxidation curves: crossed over around the IC50 survival value
